Test results reported in paper PMC11488110 (Theranostics, 2024).
“Also recorded” adds a separate entry of the source.

What was measured:
[1] = Metabolic stability assay in liver microsomes; type: in vitro ADME, dog; conditions: 1 μM, 30 min
Method: The metabolic stability assay was performed by incubation of human and selected animal liver microsomes (dog, rat, and mouse) with the test compound at a final concentration of 1 μM, in the presence of 0.5 mg/ml microsomal protein and NADPH-regeneration system, in a total volume of 100 μL phosphate buffer 100 mM (pH 7.4) at 37 °C. The incubation was started by introducing the NADPH-regeneration system and terminated by adding 40 μL of ice-cold acetonitrile at 0- and 30 min. Precipitated proteins were removed by centrifugation at 10,000 g and 4 °C for 5 min. Aliquots of the supernatant were injected onto an LC-MS/MS system. Incubations terminated prior to addition of the NADPH-regeneration system (time point, 0 min) were used as standards, defined as 100%. Percent of the parent compound remaining was calculated by comparing peak areas.
Ta b l e S2 . CYP inhibition, microsomal stability, and hERG in hibition of 5a .
CYP inhibitiona Microsomal stabilityb
( % of c ont rol ac ti vit y) (% of remaining compound) hERG inhibitionc (IC50, μ M) […]
aCytochrome P450 (CYP450) enzyme activity was measured by incubating CYP450 enzyme isotype-specific substrates and liver microsomes in the presence of the test compound (10 μM) for 15 min. […]

hPPARδ = biological target: T1, hPPARδ (Homo sapiens, UniProt Q03181); test: In vitro co-transfection (PPRE-luciferase) assay in CV-1 cells, hPPARδ; type: cell-based
T1 construct: expressed in transfected cells; host or cells: CV-1 monkey kidney cells
T1 sequence (Q03181 1-441): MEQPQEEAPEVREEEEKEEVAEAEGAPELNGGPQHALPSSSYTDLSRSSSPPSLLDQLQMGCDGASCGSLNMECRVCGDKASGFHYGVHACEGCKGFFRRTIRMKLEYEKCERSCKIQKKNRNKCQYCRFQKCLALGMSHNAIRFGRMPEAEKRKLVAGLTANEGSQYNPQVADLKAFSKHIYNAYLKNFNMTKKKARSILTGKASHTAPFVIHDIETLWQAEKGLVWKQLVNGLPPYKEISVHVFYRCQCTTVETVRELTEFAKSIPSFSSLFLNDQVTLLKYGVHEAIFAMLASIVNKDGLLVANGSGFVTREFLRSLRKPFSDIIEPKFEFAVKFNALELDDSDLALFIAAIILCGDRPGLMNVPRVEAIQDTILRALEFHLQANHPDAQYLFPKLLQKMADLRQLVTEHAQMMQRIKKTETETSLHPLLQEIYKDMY

hPPARα = biological target: T2, hPPARα (Homo sapiens, UniProt Q07869); test: In vitro co-transfection (PPRE-luciferase) assay in CV-1 cells, hPPARα; type: cell-based; conditions: 24 h, read-out: Potency (EC50) hPPARα
T2 sequence (Q07869 1-468): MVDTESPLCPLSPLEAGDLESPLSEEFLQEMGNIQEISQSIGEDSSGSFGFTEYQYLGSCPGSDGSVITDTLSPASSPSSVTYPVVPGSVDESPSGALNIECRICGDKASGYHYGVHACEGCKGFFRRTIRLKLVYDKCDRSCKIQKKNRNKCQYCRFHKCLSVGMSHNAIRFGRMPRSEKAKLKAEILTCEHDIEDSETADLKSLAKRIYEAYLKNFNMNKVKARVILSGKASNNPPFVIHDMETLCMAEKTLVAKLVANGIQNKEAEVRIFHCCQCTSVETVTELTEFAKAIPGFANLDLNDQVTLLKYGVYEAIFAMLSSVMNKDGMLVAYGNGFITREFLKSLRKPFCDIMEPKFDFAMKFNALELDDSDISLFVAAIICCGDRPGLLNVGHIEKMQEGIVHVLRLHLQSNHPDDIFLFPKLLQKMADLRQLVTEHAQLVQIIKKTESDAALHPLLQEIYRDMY

BV-2 microglial cells [2] = test: Cytotoxicity assay (EZ-Cytox) in BV-2 microglia; type: cell-based, mouse; conditions: up to 20 μM, 24 h
Method: The in vitro cytotoxicity of 5a was evaluated using the EZ-Cytox assay kit (DoGenBio, South Korea). […] Absorbance was measured at 450 nm, after 1 h of incubation with EZ-Cytox containing water-soluble tetrazolium salt (WST), using a SpectraMax®i3 microplate reader (Molecular Devices).

primary mouse astrocytes = test: LPS/IFNγ-induced inflammatory responses in primary mouse astrocytes; type: cell-based
BV-2 microglial cells [3] = test: HO-1 expression and intracellular ROS in BV-2 microglia; type: cell-based, mouse
Method: Total proteins were extracted from cells or mouse brain tissues using radioimmunoprecipitation assay (RIPA) buffer (Sigma-Aldrich) containing a protease and phosphatase inhibitor cocktail (Roche Diagnostics). After 30 min of incubation with RIPA buffer on ice, lysates were centrifuged at 15800 g and 4 °C for 20 min and supernatants were collected. Protein concentrations were determined using Pierce® BCA Protein Assay Kit (Thermo Fisher Scientific). Protein samples (10 μg) were separated on 10% SDS-PAGE gels and transferred to polyvinylidene fluoride (PVDF) membranes (Millipore). The membranes were blocked in 5% skim milk (Millipore) in TBST (10 mM Tris-HCl, pH 7.5, 150 mM NaCl, and 0.1% Tween® 20) for 1 h at room temperature and incubated overnight at 4 °C with primary antibodies. […] The western blot bands were analyzed using ImageJ software (NIH) and β-Actin or glyceraldehyde 3-phosphate dehydrogenase (GAPDH) were used as a loading control. […]
Intracellular ROS accumulation was monitored using the cell-permeable fluorescent probe DCFH-DA (Sigma-Aldrich). […] After washing with phosphate-buffered saline (PBS), cells were imaged with an ImageXpress Pico (Molecular Devices) and fluorescence intensity was quantified using the ImageJ software (NIH).

For `Cc1cc(SCc2[se]c(-c3ccc(C(F)(F)F)cc3)nc2C)ccc1OCC(=O)O` [Compound 5a, {2-Methyl-4-[4-methyl-2-(4-trifluoromethyl-phenyl)-selenazol-5-yl-methylsulfanyl]-phenoxy}-acetic acid], which “Microsomal stability, Dog (% of remaining compound)” value [1] is on record?
The value was 91.3 % of remaining compound.

What about the EC50 (hPPARδ; co-transfection assay, CV-1 cells, 24 h, read-out: Potency (EC50) hPPARδ) of the same compound?
Its EC50 is 0.7 nM.

What about the “Selectivity index hPPARα/hPPARδ” value (hPPARδ; ratio EC50(hPPARα)/EC50(hPPARδ)) of the same compound?
Its value is greater than 14000.

What about the “Selectivity index hPPARγ/hPPARδ” value (hPPARδ; ratio EC50(hPPARγ)/EC50(hPPARδ)) of the same compound?
Its value is greater than 14000.

And the EC50 (hPPARα)?
Its EC50 is greater than 10 µM.

What about the “Viability of BV-2 cells” value (BV-2 microglial cells [2]) of the same compound?
Its value is “did not affect the viability; also recorded: less cytotoxic than GW501516”.

And the “LPS/IFNγ-induced NO release” value (primary mouse astrocytes; primary astrocytes)?
The value was “significantly reduced NO release”.

What about the “LPS/IFNγ-induced production of TNF-α, IL-1β and IL-6” value (primary mouse astrocytes; primary astrocytes) of the same compound?
Its value is “suppressed the production of pro-inflammatory cytokines”.

What about the “Anti-inflammatory effects on astrocytes compared with GW501516” value (primary mouse astrocytes; same concentration) of the same compound?
Its value is “superior to those of GW501516”.

And the “Intracellular ROS production (DCFH-DA)” value (BV-2 microglial cells [3]; BV-2, 5 μM 24 h, H2O2 200 μM 20 min)?
The value was “suppressed ROS production”.

And the HO-1 expression (BV-2 microglial cells [3]; BV-2, 48 h)?
The HO-1 expression was “increased the expression of HO-1”.
